Values joined by “and” are separate entries in the source; they are usually repeats but may differ in a detail not shown here. Equal entries are not always repeated.
Test system: GRABDA dopamine sensor, nucleus accumbens shell
Experiment: Fibre photometry of dopamine (GRABDA) after cocaine administration
Assay type: in vivo, rat
Settings: for GRABDA dopamine signal, Mean: ED Fig. 9d; for GRABDA response versus saline: cocaine 5, 10, 20 mg per kg i.p.
Method: Male Sprague–Dawley rats were anaesthetized with isoflurane (1.5–2%) and then placed onto a stereotaxic frame (Kopf) and injected with AAV5-Syn::coca-5HT3-IRES-mCherry (0.5 µl, 4.95 × 10^12 vg per ml) into the LHb (AP, −3.8 mm relative to bregma; ML, ±0.7 mm; DV, −5.25 mm, at a 10° angle) (n = 5) or underwent sham surgery (n = 6). Rats were also implanted with an optic fibre (400 µm core, 0.50 NA) attached to a 2.5 mm diameter ferrule (Thorlabs) directed to the medial shell of the nucleus accumbens (AP, +1.7 mm relative to bregma; ML, ±0.9 mm; DV, −7.0 mm). To ensure that AAV9-Syn::GRABDA1m was transduced at the direct vicinity of the fibre tip, we coated the fibre with the AAV (0.4 µl, 5 × 10^12 vg per ml) using a silk fibroin film before its implantation as previously described.
For fibre photometry, dopamine (GRABDA) dynamics were measured using a Tucker-Davis Technologies (TDT) system in anaesthetized rats. […] Data were acquired at 1 kHz. On the testing day, rats were anaesthetized (isoflurane: induction, 5%; maintenance, 3%) and attached to a photometry patch cord (400 μm core, 0.50 NA). GRABDA signals were then collected for 5 min, followed by a saline i.p. injection, and additional GRABDA signal measurement for 20 min. Cocaine was then injected i.p. at 20, 10 or 5 mg per kg, and the GRABDA signal was measured for an additional 20 min. Each rat was tested three times with cocaine doses administered in randomized order. Fibre photometry analyses were performed using scripts in MATLAB R2023b (MathWorks) based on codes from the Barker (https://github.com/djamesbarker)[64] and Lerner (https://github.com/talialerner/)[65] laboratories. […] The GRABDA signal was normalized to values at 1 min before saline or cocaine injection and shown as the average z-scored activity per min. […] Fibre photometry data are represented as mean ± s.e.m. Statistical analyses were performed using Prism 10 (GraphPad).

[1] = ED Fig. 9a, Cocaine 10 mg/kg, Time 5
[2] = ED Fig. 9a, Cocaine 10 mg/kg, Time 6
[3] = ED Fig. 9a, Cocaine 10 mg/kg, Time 7
[4] = ED Fig. 9a, Cocaine 10 mg/kg, Time 8
[5] = ED Fig. 9a, Cocaine 10 mg/kg, Time 9
[6] = ED Fig. 9a, Cocaine 10 mg/kg, Time 10
[7] = ED Fig. 9a, Cocaine 10 mg/kg, Time 11
[8] = ED Fig. 9a, Cocaine 10 mg/kg, Time 12
[9] = ED Fig. 9a, Cocaine 10 mg/kg, Time 13
[10] = ED Fig. 9a, Cocaine 10 mg/kg, Time 14
[11] = ED Fig. 9a, Cocaine 10 mg/kg, Time 15
[12] = ED Fig. 9a, Cocaine 10 mg/kg, Time 16
[13] = ED Fig. 9a, Cocaine 10 mg/kg, Time 17
[14] = ED Fig. 9a, Cocaine 10 mg/kg, Time 18
[15] = ED Fig. 9a, Cocaine 10 mg/kg, Time 19
[16] = ED Fig. 9a, Cocaine 10 mg/kg, Time -1

SMILES: COC(=O)[C@H]1[C@@H](OC(=O)c2ccccc2)C[C@@H]2CC[C@H]1N2C [cocaine]
- GRABDA dopamine signal, single rats (ED Fig. 9a, Cocaine 10 mg/kg, Time 4): 1.256 and 1.397 and 0.09982 and 0.6394 and 1.0999 and 0.05112
- GRABDA dopamine signal, AVG [1]: 1.193
- GRABDA dopamine signal, single rats [1]: 1.343 and 2.078 and 0.3984 and 0.8156 and 2.4787 and 0.0445
- GRABDA dopamine signal, AVG [2]: 1.422
- GRABDA dopamine signal, single rats [2]: 1.711 and 2.382 and 0.7218 and 1.242 and 2.331 and 0.1429
- GRABDA dopamine signal, AVG [3]: 1.596
- GRABDA dopamine signal, single rats [3]: 1.781 and 2.522 and 1.248 and 1.497 and 2.407 and 0.1218
- GRABDA dopamine signal, AVG [4]: 1.699
- GRABDA dopamine signal, single rats [4]: 2.125 and 2.686 and 1.2639 and 1.736 and 2.313 and 0.06957
- GRABDA dopamine signal, AVG [5]: 1.935
- GRABDA dopamine signal, single rats [5]: 2.098 and 2.8744 and 1.781 and 1.888 and 2.927 and 0.03932
- GRABDA dopamine signal, AVG [6]: 2.176
- GRABDA dopamine signal, single rats [6]: 2.19 and 2.83 and 2.002 and 2.24 and 3.737 and 0.0549
- GRABDA dopamine signal, AVG [7]: 2.088
- GRABDA dopamine signal, single rats [7]: 2.259 and 2.779 and 2.031 and 2.445 and 2.889 and 0.1232
- GRABDA dopamine signal, AVG [8]: 1.996
- GRABDA dopamine signal, single rats [8]: 2.418 and 2.64 and 2.12 and 2.366 and 2.425 and 0.00481
- GRABDA dopamine signal, AVG [9]: 2.15
- GRABDA dopamine signal, single rats [9]: 2.55 and 2.491 and 2.555 and 2.51 and 2.634 and 0.161
- GRABDA dopamine signal, AVG [10]: 2.1808
- GRABDA dopamine signal, single rats [10]: 2.759 and 2.573 and 2.372 and 2.6549 and 2.629 and 0.09693
- GRABDA dopamine signal, AVG [11]: 2.145
- GRABDA dopamine signal, single rats [11]: 2.608 and 2.303 and 2.535 and 2.6631 and 2.692 and 0.06715
- GRABDA dopamine signal, AVG [12]: 2.005
- GRABDA dopamine signal, single rats [12]: 2.483 and 2.2 and 2.525 and 2.513 and 2.213 and 0.09632
- GRABDA dopamine signal, AVG [13]: 2.106
- GRABDA dopamine signal, single rats [13]: 2.751 and 1.972 and 2.4136 and 2.994 and 2.448 and 0.05475
- GRABDA dopamine signal, AVG [14]: 1.975
- GRABDA dopamine signal, single rats [14]: 2.385 and 1.7832 and 2.833 and 2.375 and 2.433 and 0.03971
- GRABDA dopamine signal, AVG [15]: 1.865
- GRABDA dopamine signal, single rats [15]: 2.396 and 1.613 and 2.323 and 2.558 and 2.225 and 0.07693
- GRABDA dopamine signal, AVG [16]: 0.04715
- GRABDA dopamine signal, single rats [16]: 0.0433 and 0.0669 and 0.08953 and 0.0687
- GRABDA dopamine signal, AVG (ED Fig. 9c, Cocaine 20 mg/kg, Time 0): 0.0619
- GRABDA dopamine signal, AVG (ED Fig. 9c, Cocaine 20 mg/kg, Time 1): 0.07229
- GRABDA dopamine signal, AVG (ED Fig. 9c, Cocaine 20 mg/kg, Time 2): 0.3247
- GRABDA dopamine signal, AVG (ED Fig. 9c, Cocaine 20 mg/kg, Time 3): 0.7746
- GRABDA dopamine signal, AVG (ED Fig. 9c, Cocaine 20 mg/kg, Time 4): 1.201
- GRABDA dopamine signal, AVG (ED Fig. 9c, Cocaine 20 mg/kg, Time 5): 1.589
- GRABDA dopamine signal, AVG (ED Fig. 9c, Cocaine 20 mg/kg, Time 6): 1.681
- GRABDA dopamine signal, AVG (ED Fig. 9c, Cocaine 20 mg/kg, Time 7): 1.863
- GRABDA dopamine signal, AVG (ED Fig. 9c, Cocaine 20 mg/kg, Time 8): 1.725
- GRABDA dopamine signal, AVG (ED Fig. 9c, Cocaine 20 mg/kg, Time 9): 1.85
- GRABDA dopamine signal, AVG (ED Fig. 9c, Cocaine 20 mg/kg, Time 10): 1.747
- GRABDA dopamine signal, AVG (ED Fig. 9c, Cocaine 20 mg/kg, Time 11): 1.666
- GRABDA dopamine signal, AVG (ED Fig. 9c, Cocaine 20 mg/kg, Time 12): 1.553
- GRABDA dopamine signal, AVG (ED Fig. 9c, Cocaine 20 mg/kg, Time 13): 1.4
- GRABDA dopamine signal, AVG (ED Fig. 9c, Cocaine 20 mg/kg, Time 14): 1.393
- GRABDA dopamine signal, AVG (ED Fig. 9c, Cocaine 20 mg/kg, Time 15): 1.467
- GRABDA dopamine signal, AVG (ED Fig. 9c, Cocaine 20 mg/kg, Time 16): 1.282
- GRABDA dopamine signal, AVG (ED Fig. 9c, Cocaine 20 mg/kg, Time 17): 1.1
- GRABDA dopamine signal, AVG (ED Fig. 9c, Cocaine 20 mg/kg, Time 18): 1.175
- GRABDA dopamine signal, AVG (ED Fig. 9c, Cocaine 20 mg/kg, Time 19): 1.238
- GRABDA dopamine signal, AVG (ED Fig. 9c, Cocaine 20 mg/kg, Time -1): -0.01168
- GRABDA dopamine signal, Mean (Cocaine 20 mg/kg, Time 0): -0.2698
- GRABDA dopamine signal, Mean (Cocaine 20 mg/kg, Time 1): -0.1247
- GRABDA dopamine signal, Mean (Cocaine 20 mg/kg, Time 2): 0.09345
- GRABDA dopamine signal, Mean (Cocaine 20 mg/kg, Time 3): 0.3137
- GRABDA dopamine signal, Mean (Cocaine 20 mg/kg, Time 4): 0.5516
- GRABDA dopamine signal, Mean (Cocaine 20 mg/kg, Time 5): 0.5577
- GRABDA dopamine signal, Mean (Cocaine 20 mg/kg, Time 6): 0.3392
- GRABDA dopamine signal, Mean (Cocaine 20 mg/kg, Time 7): 0.3431
- GRABDA dopamine signal, Mean (Cocaine 20 mg/kg, Time 8): 0.2873
- GRABDA dopamine signal, Mean (Cocaine 20 mg/kg, Time 9): 0.5323
- GRABDA dopamine signal, Mean (Cocaine 20 mg/kg, Time 10): 0.4252
- GRABDA dopamine signal, Mean (Cocaine 20 mg/kg, Time 11): 0.3604
- GRABDA dopamine signal, Mean (Cocaine 20 mg/kg, Time 12): 0.1832
- GRABDA dopamine signal, Mean (Cocaine 20 mg/kg, Time 13): 0.2813
- GRABDA dopamine signal, Mean (Cocaine 20 mg/kg, Time 14): 0.2778
- GRABDA dopamine signal, Mean (Cocaine 20 mg/kg, Time 15): 0.4094
- GRABDA dopamine signal, Mean (Cocaine 20 mg/kg, Time 16): 0.4918
- GRABDA dopamine signal, Mean (Cocaine 20 mg/kg, Time 17): 0.3214
- GRABDA dopamine signal, Mean (Cocaine 20 mg/kg, Time 18): 0.2818
- GRABDA dopamine signal, Mean (Cocaine 20 mg/kg, Time 19): 0.2119
- GRABDA dopamine signal, Mean (Cocaine 20 mg/kg, Time -1): 0.05504
- GRABDA response versus saline (coca-5HT3 rats): did not produce statistically significant increases
- GRABDA response versus saline (control rats): significantly increased
